Assay results: US20180327367A1, “MACROCYCLIC BROAD SPECTRUM ANTIBIOTICS” (priority 2015, published 2018)
Converted amounts (≈) assume the structure as drawn. Like-named read-outs stand apart in the source and are kept apart here.

Columns and labels:
[1] = target: T1, SpsB (Staphylococcus aureus signal peptidase) (Staphylococcus aureus, UniProt P0A070); assay: cell-based; format: biochemical; details: fluorogenic peptide substrate, kinetic read 30 min
T1 construct: This assay uses a suspension of Staphylococcus aureus cells as a source of SpsB instead of recombinant SpsB protein; endogenous in cells; host or cells: S. aureus, USA300 background, overexpressing SpsB (whole-cell suspension from frozen pellets)
T1 sequence (P0A070 whole entry): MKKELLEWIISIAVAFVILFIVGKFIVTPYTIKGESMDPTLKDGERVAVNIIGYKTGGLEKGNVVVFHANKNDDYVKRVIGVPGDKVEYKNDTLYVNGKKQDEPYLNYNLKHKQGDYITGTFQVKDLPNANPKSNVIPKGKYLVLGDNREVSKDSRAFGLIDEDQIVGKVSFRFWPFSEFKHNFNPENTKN
Outline: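 Cleavage of an internally quenched (Dabcyl)βAla-KPAKAAE(Edans) peptide, added as 20 μM solution mixed 1:1 with cells, was followed for 30 min at 340/490 nm. SpsB came from a suspension of SpsB-overexpressing USA300 S. aureus in Tween-80-containing PBS buffer. Slopes plotted against 3-fold compound dilutions gave IC50.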

[2] = test system: Escherichia coli MC4100 harboring the IMP4213 (E. coli IMP); assay: microbe, parasite or virus in culture; format: cell-based; details: 35° C., 22 hours; for MIC: Escherichia coli, 22 h, read-out: MIC (μg/mL) E. coli IMP, E. coli MC4100 IMP4213, increased outer-membrane permeability
Outline: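 Top conc 4 μg/mL (protocol 2) or 0.5 μg/mL (protocol 3), 2-fold series, 10 points. Final OD600 0.0005; 22 h, 35° C. IMP4213 = permeable outer membrane.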

[3] = test system: Escherichia coli ATCC 25922; assay: Minimum inhibitory concentration, broth micro-dilution (CLSI), E. coli; format: cell-based; details: 35° C., 22 hours; for MIC: Escherichia coli, ATCC25922, 22 h
[4] = test system: Methicillin Resistant Staphylococcus aureus strain USA 300, NRS384; assay: Minimum inhibitory concentration, broth micro-dilution (CLSI), S. aureus; format: cell-based; details: 35° C., 22 hours; for MIC: Staphylococcus aureus, MRSA / NRS 384 / USA300, 22 h
Outline: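 CLSI broth microdilution in cation-adjusted Mueller Hinton Broth with 0.002% Tween-80; inoculum final OD600 0.0005, 22 hours at 35° C. Ten 2-fold dilutions starting at 4 μg/mL (protocol 2) or 0.5 μg/mL (protocol 3).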

[5] = SpsB IC50, whole-cell S. aureus (USA300 background, overexpressing SpsB) as SpsB source
[6] = E. coli ATCC 25922, read-out: MIC (μg/mL) E. coli
[7] = MRSA USA 300 NRS384, read-out: MIC (μg/mL) S. aureus
[8] = read-out: MIC (μg/mL) E. coli, E. coli ATCC 25922
[9] = read-out: MIC (μg/mL) S. aureus, MRSA USA 300 NRS384

Row | Structure (SMILES) | IC50 [1, 5] [nM] | MIC (μg/mL) E. coli IMP ([2]; E. coli MC4100 IMP4213, increased outer-membrane permeability) [µg/mL] | MIC (μg/mL) E. coli ([3]; E. coli ATCC 25922) [µg/mL] | MIC (μg/mL) S. aureus ([4]; MRSA USA 300 NRS384) [µg/mL] | MIC [2] [µg/mL] | MIC [3, 6] [µg/mL] | MIC [4, 7] [µg/mL] | MIC [3, 8] [µg/mL] | MIC [4, 9] [µg/mL] | IC50 ([1]; read-out: SpsB IC50, whole-cell S. aureus (USA300 background, overexpressing SpsB) as SpsB source) [nM]
1 | CCCCCCCCC(F)C(=O)NC(CO)C(=O)N(C)C1C(=O)NC(C)C(=O)NC(C(=O)NCC#N)Cc2ccc(OCCN)c(c2)-c2cc1ccc2OCCN (single isomer, unassigned) [Compound 394-P2] | 2.7 | 0.38 (≈ 0.477 µM) | 64 (≈ 80.3 µM) | 0.5 (≈ 0.627 µM) |  |  |  |  |  | 
2 | CCCCCCOc1ccc(C(=O)N[C@@H](CCN)C(=O)N(C)[C@@H]2C(=O)N[C@@H](C)C(=O)N[C@H](C(=O)NCC#N)Cc3ccc(OCCN)c(c3)-c3cc2ccc3OCCN)c(Cl)c1 [Compound 271] | 1.1 |  |  |  | 0.016 (≈ 0.0183 µM) | 0.31 (≈ 0.354 µM) | 0.047 (≈ 0.0536 µM) |  |  | 
3 | Cc1nc(-c2ccc(C(C)(C)C)cc2)ncc1C(=O)N[C@@H](CCN)C(=O)N(C)[C@@H]1C(=O)N[C@@H](C)C(=O)N[C@H](C(=O)NCC#N)Cc2ccc(OCCN)c(c2)-c2cc1ccc2OCCN [Compound 163] | 0.71 |  |  |  | 0.002 (≈ 0.00225 µM) | < 0.063 | 0.031 (≈ 0.0348 µM) |  |  | 
4 | CCCCCCCCC(=O)N[C@@H](CCN)C(=O)N(C)[C@@H]1C(=O)N[C@@H](C)C(=O)N[C@H](C(=O)NCC#N)Cc2ccc(OCCN)c(c2)-c2cc1ccc2OCCN [Compound 106] | 1.7 |  |  |  | 0.13 (≈ 0.167 µM) | 24 (≈ 30.8 µM) | 0.38 (≈ 0.488 µM) |  |  | 
5 | CCCCCCCCc1ccc(C(=O)N[C@@H](CCN)C(=O)N(C)[C@@H]2C(=O)N[C@@H](C)C(=O)N[C@H](C(=O)NCC#N)Cc3ccc(OCCN)c(c3)-c3cc2ccc3OCCN)c(CC(N)=O)c1 [Compound 448] | 0.93 |  |  |  | 0.016 (≈ 0.0176 µM) |  |  | 0.75 (≈ 0.823 µM) | 0.023 (≈ 0.0252 µM) | 
6 | CCCCCCCCCCCC(=O)N[C@@H](CO)C(=O)N(C)[C@@H]1C(=O)N[C@@H](C)C(=O)N[C@H](C(=O)NCC#N)Cc2ccc(OCCN)c(c2)-c2cc1ccc2OCCN [Compound 231] | 0.57 |  |  |  | 0.063 (≈ 0.0781 µM) | 8 (≈ 9.91 µM) | 0.13 (≈ 0.161 µM) |  |  | 
7 | Cc1cc(OCCC(C)(C)C)ccc1C(=O)N[C@@H](CCN)C(=O)N(C)[C@@H]1C(=O)N[C@@H](C)C(=O)N[C@H](C(=O)NCC#N)Cc2ccc(OCCN)c(c2)-c2cc1ccc2OCCN [Compound 277] | 1.1 |  |  |  | 0.012 (≈ 0.014 µM) | 1 (≈ 1.17 µM) | 0.063 (≈ 0.0736 µM) |  |  | 
8 | CCCCC1CCC(C(=O)N[C@@H](CCN)C(=O)N(C)[C@@H]2C(=O)N[C@@H](C)C(=O)N[C@H](C(=O)NCC#N)Cc3ccc(OCCN)c(c3)-c3cc2ccc3OCCN)CC1 (stereo partly shown) [Compound 123] |  |  |  |  | 0.0078 (≈ 0.0097 µM) | 0.5 (≈ 0.622 µM) | 0.19 (≈ 0.236 µM) |  |  | 1.2
9 | CCCCCCCCCCS(=O)(=O)N[C@@H](CCN)C(=O)N(C)[C@@H]1C(=O)N[C@@H](C)C(=O)N[C@H](C(=O)NCC#N)Cc2ccc(OCCN)c(c2)-c2cc1ccc2OCCN [Compound 346] | 0.7 |  |  |  | 0.063 (≈ 0.0748 µM) | 8 (≈ 9.5 µM) | 0.031 (≈ 0.0368 µM) |  |  | 
10 | CCCCc1ccc(-c2ccc(C(=O)N[C@@H](Cc3c[nH]cn3)C(=O)N(C)[C@@H]3C(=O)N[C@@H](C)C(=O)N[C@H](C(=O)NCC#N)Cc4ccc(OCCN)c(c4)-c4cc3ccc4OCCN)cc2)cc1 [Compound 478] | 1.5 |  |  |  | 0.19 (≈ 0.209 µM) | 6 (≈ 6.59 µM) | 0.19 (≈ 0.209 µM) |  |  | 
11 | CCCCCCc1ccc(-c2ncc(C(=O)N[C@@H](CCN)C(=O)N(C)[C@@H]3C(=O)N[C@@H](C)C(=O)N[C@H](C(=O)NCC#N)Cc4ccc(OCCN)c(c4)-c4cc3ccc4OCCN)c(C)n2)cc1 [Compound 159] | 0.82 |  |  |  | < 0.0039 | 0.13 (≈ 0.142 µM) | 0.063 (≈ 0.0686 µM) |  |  | 
12 | CCCCc1ccc(C(=O)N[C@H](CCO)C(=O)N[C@@H](CCN)C(=O)N(C)[C@@H]2C(=O)N[C@@H](C)C(=O)N[C@H](C(=O)NCC#N)Cc3ccc(OCCN)c(c3)-c3cc2ccc3OCCN)c(C)c1 [Compound 381] | 2.9 |  |  |  | 0.5 (≈ 0.548 µM) |  |  | 64 (≈ 70.1 µM) | 0.5 (≈ 0.548 µM) | 
13 | CCCCCCCCCCC(=O)N[C@@H](CCN)C(=O)N(C)[C@@H]1C(=O)N[C@@H](C)C(=O)N[C@H](C(=O)NCC#N)Cc2ccc(OCCN)c(c2)-c2cc1ccc2OCCN [Compound 104] | 0.5 |  |  |  | 0.023 (≈ 0.0285 µM) | 4 (≈ 4.96 µM) | 0.047 (≈ 0.0583 µM) |  |  | 
